Assay results as given in article PMC3758111 (Planta medica, 2013).
Where two headings read alike, the source gives them in different places.

Columns and labels:
[1] = rats, oral, as pure compound or in E. purpurea root extract; cited from earlier work
[2] = system: nitric oxide production in lipopolysaccharide-stimulated RAW264.7 macrophages; details: cited from earlier work
Caco-2 cells [3] = test: Cytotoxicity of pure compounds and extracts to Caco-2 cells; type: cell-based, human; details: vs control 0.3% v/v DMSO in DMEM, p < 0.05; tested 10–1000 μM
[4] = 3 h after oral 60% ethanolic extract of E. angustifolia containing 0.4–2 mg of Bauer alkamide 8 and 10; cited from earlier work
[5] = molecular target: P-glycoprotein transporter (P-gp) (Homo sapiens, UniProt P08183); test: P-gp assay: calcein-AM efflux in Caco-2 cells; type: cell-based; details: for Concentration that significantly inhibited P-gp activity: single compounds, calcein-AM, Caco-2, p < 0.05
[6] = Transepithelial transfer across Caco-2 cell monolayers; type: in vitro ADME, human; details: human
Caco-2 cell monolayers = test: as above; type: in vitro ADME, human; details: for Concentration dependency of uptake / Permeation rates at 37 °C compared with 4 °C: pure compounds; for Permeation rates at 37 °C compared with 4 °C: AP-BL
[7] = incubation with NADPH and human liver microsomes; cited from earlier work
Caco-2 cells [8] = test: Glucuronidation by Caco-2 cells; details: for Compartments in which glucuronide metabolites were found: pure compound, 25 μM applied apically
[9] = system: prostaglandin E (2) production in lipopolysaccharide-stimulated RAW264.7 macrophages; details: cited from earlier work
Caco-2 monolayers = details: extracted and isolated from E. pallida roots; cited from earlier work
[10] = 100 μM, 72 h, 37°C, RPMI 1640 medium; cited from earlier work
[11] = system: multidrug transporter P-glycoprotein (P-gp); details: isolated from E. pallida; human proximal tubular kidney cells; cited from earlier work
[12] = Caco-2, pH 7.4, Papp, After, single compound, 10–100 μM, subsequent to deconjugation with β-glucuronidase, n=9
[13] = Caco-2, pH 7.4, Papp, Before, single compound, 10–100 μM, prior to deconjugation with β-glucuronidase, n=9

Chain of P-glycoprotein transporter (P-gp) (P08183 whole entry): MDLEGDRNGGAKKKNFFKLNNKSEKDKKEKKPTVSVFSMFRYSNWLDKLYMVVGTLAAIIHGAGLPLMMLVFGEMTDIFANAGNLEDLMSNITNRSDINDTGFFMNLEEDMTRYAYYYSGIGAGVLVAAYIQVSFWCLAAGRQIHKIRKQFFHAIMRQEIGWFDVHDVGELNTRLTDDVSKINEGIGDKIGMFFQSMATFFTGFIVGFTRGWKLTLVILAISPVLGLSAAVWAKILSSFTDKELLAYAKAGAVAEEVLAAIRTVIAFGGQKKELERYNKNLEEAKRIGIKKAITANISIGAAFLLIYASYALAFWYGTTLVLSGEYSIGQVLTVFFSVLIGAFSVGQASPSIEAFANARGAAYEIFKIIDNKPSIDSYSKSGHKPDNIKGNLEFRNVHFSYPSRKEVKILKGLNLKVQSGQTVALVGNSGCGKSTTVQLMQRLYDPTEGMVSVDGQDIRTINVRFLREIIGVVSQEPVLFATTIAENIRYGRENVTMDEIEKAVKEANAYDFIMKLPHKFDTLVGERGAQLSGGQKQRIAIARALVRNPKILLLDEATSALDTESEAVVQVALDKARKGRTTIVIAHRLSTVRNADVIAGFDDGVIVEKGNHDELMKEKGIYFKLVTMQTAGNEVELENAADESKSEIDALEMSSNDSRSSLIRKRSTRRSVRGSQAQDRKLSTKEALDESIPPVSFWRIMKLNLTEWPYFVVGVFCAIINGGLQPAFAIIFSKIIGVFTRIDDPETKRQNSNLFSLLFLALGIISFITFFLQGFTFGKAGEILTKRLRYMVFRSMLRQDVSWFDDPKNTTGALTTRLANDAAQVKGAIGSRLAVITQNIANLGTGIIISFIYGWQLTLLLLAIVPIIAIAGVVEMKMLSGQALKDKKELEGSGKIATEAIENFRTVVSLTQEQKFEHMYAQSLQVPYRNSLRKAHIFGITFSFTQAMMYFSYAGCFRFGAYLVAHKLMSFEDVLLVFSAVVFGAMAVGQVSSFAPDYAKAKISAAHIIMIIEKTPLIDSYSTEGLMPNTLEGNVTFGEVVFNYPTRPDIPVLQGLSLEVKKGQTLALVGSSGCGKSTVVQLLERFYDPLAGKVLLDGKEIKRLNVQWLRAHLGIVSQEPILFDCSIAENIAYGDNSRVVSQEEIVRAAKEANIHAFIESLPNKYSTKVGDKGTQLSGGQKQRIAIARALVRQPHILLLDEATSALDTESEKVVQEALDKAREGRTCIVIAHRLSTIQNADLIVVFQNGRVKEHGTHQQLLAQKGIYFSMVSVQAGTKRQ

Row | Compound | Nitric oxide production ([2]; 50 μM) | Concentrations significantly cytotoxic to Caco-2 cells (Caco-2 cells [3]) [µM] | Fraction of the ingested dose found in human blood [4] | Concentration that significantly inhibited P-gp activity [5] [µM] | Papp at 90 min [6, 12] [×10⁻⁶ cm/s] | Papp at 90 min [6, 13] [×10⁻⁶ cm/s] | Concentration dependency of uptake (Caco-2 cell monolayers; 10–100 μM) | Permeation rates at 37 °C compared with 4 °C (Caco-2 cell monolayers) | Compartments in which glucuronide metabolites were found (Caco-2 cells [8]) | Prostaglandin E (2) production ([9]; 50 μM) | further results
1 | C/C=C\C=C/CC/C=C/C=C/C(=O)NCC(C)C [Bauer alkamide 8, (2E,4E,8Z,10Z)-N-isobutyldodeca-2,4,8,10-tetraenamide] | significantly decrease | > 350 | about 5% | 175 | 39.8 ± 13.4 | 43.8 ± 11.2 | increased linearly and exhibited non-saturable transport | No significant differences | only in the apical side | significantly decrease | Glucuronide or sulfate metabolite in urine [1]: no glucuronide or sulfate metabolite was present; Papp of Bauer alkamide 8 relative to Bauer alkamide 10 (Caco-2 cell monolayers; Table 2): ~ 2.5 ×; Papp of Bauer alkamide 8 relative to Bauer alkamide 11 (Caco-2 cell monolayers; Table 2): ~ 15 ×; Metabolites formed [7]: Monohydroxylated, monoepoxidized, and N-dealkylated metabolites
2 | CCC/C=C\CC/C=C/C=C/C(=O)NCC(C)C [Bauer alkamide 10, (2E,4E,8Z)-N-isobutyldodeca-2,4,8-trienamide] | – | – | ~1% | 205 | 18.3 ± 5.9 | 17.7 ± 8.8 | increased linearly and exhibited non-saturable transport | No significant differences | in the apical side and cell lysates | – | –
3 | CCCCCCC/C=C/C=C/C(=O)NCC(C)C [Bauer alkamide 11, (2E,4E)-N-isobutyldodeca-2,4-dienamide] | significantly decrease | > 460 | – | 230 | – | 2.8 ± 1.5 | increased linearly and exhibited non-saturable transport | No significant differences | in the basolateral side and cell lysates | significantly decrease | –
4 | C/C=C\C#CC/C=C\CCCCCC(C)=O [Bauer ketone 24, pentadeca-(8Z, 13Z)-diene-11-yn-2-one] | – | > 990 | – | – | – | – | – | – | – | – | Nitric oxide production ([2]; 5 μM): significantly decrease; Apparent permeability (Caco-2 monolayers): 10 ± 3 cm/s ×10^−6; Hydroperoxide intermediate formation, of the parent compound [10]: about 25%; Concentrations inhibiting P-gp [11]: 3 to 200 µg/mL; Effect on P-gp activity ([5]; single compound, tested concentrations 1–250 μM): not active; Papp at 90 min ([6]; Caco-2, pH 7.4, Papp from E. sanguinea or E. pallida extracts): 12 to 17 ×10⁻⁶ cm/s; Detection of parent compound apically, basolaterally or in cell lysates (Caco-2 cell monolayers; applied as pure compound, 10–100 μM, any time point 15–90 min): not found; Recovered in the basolateral side (Caco-2 cell monolayers; compound as contained in the two Echinacea species extracts): About 5%; Metabolism when incubated with Bauer alkamides 8, 10 and 11 (Caco-2 cells [8]; 10–100 μM, data not shown): totally metabolized; Metabolism when administered as a single compound (Caco-2 cells [8]; Caco-2 cells): totally metabolized to more hydrophilic metabolites; Recovery relative to applied amount after β-glucuronidase treatment (Caco-2 cells [8]; contained in E. sanguinea and E. pallida extracts, basolaterally and in cell lysates): significantly increased; Prostaglandin E (2) production ([9]; 5 μM): significantly decrease
